Assay results published in PubChem BioAssay AID651653 (NMMLSC, 2012).
Activity calls are given as the source filed them.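 How the source made its calls: active means viability at the top tested dose under 50% of the solvent-only control; inactive means the rest.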

Tests used:
[1] = viability loss, K562-ABCB6 cells – cell-based, CellTiter-Glo luminescence, cherry picks 01-02, cytotoxicity control for ABCB6 inhibitor project, dose response (AID 651653); settings: K562-ABCB6 viability, CellTiter-Glo luminescence, 18 h; at 100 µM (top of the series)
[2] = tested on: K562-ABCB6 viability, CellTiter-Glo luminescence, 18 h; assay: as above

CCCc1nnc(NC(=O)c2nc(S(=O)(=O)Cc3cccc(C)c3)ncc2Cl)s1
viability [1]: 65.4% (inactive)

CC(=O)Nc1ccc(NC(=O)c2nc(S(=O)(=O)Cc3ccccc3)ncc2Cl)cc1
EC50 [2]: 1190 nM

CCc1ccc(NC(=O)c2nc(S(=O)(=O)Cc3ccccc3)ncc2Cl)cc1
EC50 [2]: 1620 nM

COC(=O)c1ccc(NC(=O)c2nc(S(=O)(=O)Cc3cccc(C)c3)ncc2Cl)cc1
EC50 [2]: 688 nM

Cc1ccc(NC(=O)c2nc(S(=O)(=O)Cc3ccccc3C)ncc2Cl)cc1C
EC50 [2]: 1450 nM

Cc1cccc(CS(=O)(=O)c2ncc(Cl)c(C(=O)Nc3ccc(F)cc3)n2)c1
EC50 [2]: 1520 nM

Cc1ccc(CS(=O)(=O)c2ncc(Cl)c(C(=O)Nc3ccc(OC(F)F)cc3)n2)cc1
EC50 [2]: 3540 nM

CCOc1ccccc1NC(=O)c1nc(S(=O)(=O)Cc2cccc(C)c2)ncc1Cl
EC50 [2]: 1430 nM

CCOC(=O)c1ccc(NC(=O)c2nc(S(=O)(=O)Cc3ccccc3)ncc2Cl)cc1
EC50 [2]: 1790 nM

Cc1ccc(CS(=O)(=O)c2ncc(Cl)c(C(=O)Nc3nnc(C(C)C)s3)n2)cc1
EC50 [2]: 3930 nM

Cc1cccc(CS(=O)(=O)c2ncc(Cl)c(C(=O)Nc3nnc(C(C)C)s3)n2)c1
EC50 [2]: 6520 nM

Cc1ccccc1CS(=O)(=O)c1ncc(Cl)c(C(=O)Nc2ccc(F)cc2)n1
EC50 [2]: 7150 nM

CC(=O)Nc1ccc(NC(=O)c2nc(S(=O)(=O)Cc3cccc(C)c3)ncc2Cl)cc1
EC50 [2]: 1920 nM

CCOc1ccccc1NC(=O)c1nc(S(=O)(=O)Cc2ccccc2)ncc1Cl
EC50 [2]: 11800 nM

CCN(CC)S(=O)(=O)c1cccc(-n2c(O)c(C=Nc3ccccc3C(=O)O)c3ccccc3c2=O)c1
EC50 [2]: 13100 nM

C[N+](C)(C)CC1CCCC(C[N+](C)(C)C)C1=O (stereo not given)
EC50 [2]: 245 nM

Cc1cccc(C)c1NC(=O)c1nc(S(=O)(=O)Cc2ccccc2)ncc1Cl
EC50 [2]: 2110 nM

O=C(Nc1ccc(F)cc1)c1nc(S(=O)(=O)Cc2ccccc2)ncc1Cl
EC50 [2]: 1540 nM

Cc1nnc(NC(=O)c2nc(S(=O)(=O)Cc3ccccc3)ncc2Cl)s1
EC50 [2]: 811 nM

Cc1ccc(NC(=O)c2nc(S(=O)(=O)Cc3ccccc3)ncc2Cl)cc1
EC50 [2]: 1800 nM
